In ChEMBL document CHEMBL1201862, “PubChem BioAssay data set” (2004):
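Test compounds were applied to cells in 96-well plates for 48 hours at 5 doses. The concentration for 50% growth inhibition is given as GI50.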 Calls of active or inactive are those of the source. Rule as the data show it: active = GI50 up to about 1.1 µM and inactive = higher.

Columns and labels:
Assay in all cases: inhibition of tumour cell growth, NCI panel, 48 h
[1] = system: 786-0
[2] = system: EKVX
[3] = system: HCT-15
[4] = system: Hs-578T
[5] = system: IGROV-1
[6] = system: K562
[7] = system: LOX IMVI
[8] = system: M14
[9] = system: MDA-MB-435
[10] = system: MDA-N
[11] = system: NCI-H226
[12] = system: NCI-H522
[13] = system: NCI/ADR-RES
[14] = system: RXF 393
[15] = system: SF-268
[16] = system: SF-295
[17] = system: SR
[18] = system: SW-620
[19] = system: TK-10
[20] = system: UACC-257

Row | Structure (SMILES) | GI50 [1] | GI50 [2] | GI50 [3] [µM] | GI50 [4] | GI50 [5] | GI50 [6] | GI50 [7] | GI50 [8] | GI50 [9] | GI50 [10] | GI50 [11] | GI50 [12] | GI50 [13] | GI50 [14] | GI50 [15] | GI50 [16] | GI50 [17] | GI50 [18] | GI50 [19] | GI50 [20]
1 | O=C(CCc1ccc(O)c(O)c1)NCCc1ccccc1 | 31.6 µM (inactive) | > 94.2 µM (inactive) | 15.5 | > 82.6 µM (inactive) | 50.9 µM (inactive) | 16.5 µM (inactive) | 63.2 µM (inactive) | > 85.7 µM (inactive) | 15.2 µM (inactive) | 19 µM (inactive) | 99.8 µM (inactive) | 5.6 µM (inactive) | 40.4 µM (inactive) | > 100 µM (inactive) | > 32.4 µM (inactive) | > 91.2 µM (inactive) | 7.16 µM (inactive) | > 100 µM (inactive) | > 79.8 µM (inactive) | > 79.4 µM (inactive)
2 | COc1cccc2c1C(=O)c1c(O)c3c(c(O)c1C2=O)C[C@@](O)(/C(C)=N/NC(=O)c1ccccc1)C[C@@H]3OC1CC(N)C(O)C(C)O1 (stereo not given in full) | 0.0562 µM (active) | 0.693 µM (active) | 1.84 | 0.256 µM (active) | 0.262 µM (active) | 0.233 µM (active) | 0.0935 µM (active) | 0.203 µM (active) | 0.362 µM (active) | 0.308 µM (active) | 0.104 µM (active) | 0.19 µM (active) | 16.3 µM (inactive) | 0.33 µM (active) | 0.29 µM (active) | 0.195 µM (active) | 0.0199 µM (active) | 0.136 µM (active) | 0.53 µM (active) | 0.594 µM (active)
3 | CC(=O)n1nc(-c2ccccc2)n(/N=C/c2ccc([N+](=O)[O-])o2)c1=O | 2.21 µM (inactive) | 0.933 µM (active) | 6.84 | 8.59 µM (inactive) | 15.9 µM (inactive) | 8.83 µM (inactive) | 7.74 µM (inactive) | 1.94 µM (inactive) | 6.5 µM (inactive) | 1.81 µM (inactive) | – | 3.7 µM (inactive) | 9.73 µM (inactive) | 5.93 µM (inactive) | 3.08 µM (inactive) | 1.66 µM (inactive) | 3.08 µM (inactive) | 5.87 µM (inactive) | 11.5 µM (inactive) | 7.23 µM (inactive)
4 | COc1ccc(C)cc1NC(=S)N/N=C/c1ccco1 | 38 µM (inactive) | 16.7 µM (inactive) | 34.2 | 66.7 µM (inactive) | 35.8 µM (inactive) | 25.9 µM (inactive) | 43.1 µM (inactive) | 34.6 µM (inactive) | 16 µM (inactive) | 18.6 µM (inactive) | 25.9 µM (inactive) | 22.8 µM (inactive) | 31.4 µM (inactive) | 52.1 µM (inactive) | 56.1 µM (inactive) | 40.2 µM (inactive) | 11.3 µM (inactive) | 36.5 µM (inactive) | – | 30.9 µM (inactive)
5 | CCCCc1ccc(N2C(=O)c3cc(C)cnc3S2(=O)=O)cc1 | > 100 µM (inactive) | > 100 µM (inactive) | > 100 | 43.1 µM (inactive) | > 100 µM (inactive) | > 100 µM (inactive) | > 100 µM (inactive) | > 100 µM (inactive) | > 100 µM (inactive) | > 100 µM (inactive) | > 100 µM (inactive) | > 100 µM (inactive) | > 100 µM (inactive) | 49.2 µM (inactive) | 97.5 µM (inactive) | 91.8 µM (inactive) | > 100 µM (inactive) | > 100 µM (inactive) | – | –
6 | COC(=O)c1cc(C)n(CN(Cn2nc(C(=O)OC)cc2C)c2ccccc2)n1 | 24.5 µM (inactive) | > 100 µM (inactive) | 18 | > 100 µM (inactive) | 43 µM (inactive) | 20 µM (inactive) | 7 µM (inactive) | 32.7 µM (inactive) | 42.9 µM (inactive) | 38.5 µM (inactive) | – | 39 µM (inactive) | 21.2 µM (inactive) | 20.1 µM (inactive) | 34 µM (inactive) | 32.8 µM (inactive) | 10 µM (inactive) | 29.6 µM (inactive) | > 100 µM (inactive) | 33.3 µM (inactive)
7 | Cc1ccc(C2=Nc3c(N)nc(N)nc3NC(c3ccccc3)C2)cc1 (stereo not given) | 12 µM (inactive) | 13.5 µM (inactive) | 4.92 | 13 µM (inactive) | 7.16 µM (inactive) | 4.06 µM (inactive) | 11 µM (inactive) | 8.26 µM (inactive) | 2.24 µM (inactive) | 2.22 µM (inactive) | 14.3 µM (inactive) | 3.65 µM (inactive) | 4.34 µM (inactive) | 9.4 µM (inactive) | 14.9 µM (inactive) | – | 6.92 µM (inactive) | 4.16 µM (inactive) | 14.4 µM (inactive) | 12.2 µM (inactive)
8 | Cc1cc(S(=O)(=O)n2ccnc2Oc2ccccc2)c(SSc2cc(Cl)c(C)cc2S(=O)(=O)n2ccnc2Oc2ccccc2)cc1Cl | 93.3 µM (inactive) | 5.31 µM (inactive) | > 100 | 1.95 µM (inactive) | 42.6 µM (inactive) | > 100 µM (inactive) | > 100 µM (inactive) | > 100 µM (inactive) | > 100 µM (inactive) | > 100 µM (inactive) | 15.9 µM (inactive) | 5.93 µM (inactive) | 43.4 µM (inactive) | > 100 µM (inactive) | 59.6 µM (inactive) | – | 44 µM (inactive) | > 100 µM (inactive) | > 100 µM (inactive) | > 100 µM (inactive)
9 | CN(C)c1ccc(/N=C2/NC(=N\c3ccccc3)/C(=N/c3ccccc3)S2)cc1 | 32 µM (inactive) | > 100 µM (inactive) | > 100 | 30.7 µM (inactive) | > 100 µM (inactive) | – | 37.6 µM (inactive) | > 100 µM (inactive) | > 100 µM (inactive) | > 100 µM (inactive) | > 100 µM (inactive) | 5.64 µM (inactive) | > 100 µM (inactive) | 43.1 µM (inactive) | > 100 µM (inactive) | > 100 µM (inactive) | > 100 µM (inactive) | > 100 µM (inactive) | 62.4 µM (inactive) | > 100 µM (inactive)
10 | Nc1nc2cc(CNc3ccc(C(=O)O)cc3)ccc2nc1-c1ccccc1 | > 100 µM (inactive) | – | > 100 | > 100 µM (inactive) | > 100 µM (inactive) | > 100 µM (inactive) | 54.2 µM (inactive) | > 100 µM (inactive) | > 100 µM (inactive) | > 100 µM (inactive) | > 100 µM (inactive) | > 100 µM (inactive) | > 100 µM (inactive) | > 100 µM (inactive) | > 100 µM (inactive) | > 100 µM (inactive) | > 100 µM (inactive) | > 100 µM (inactive) | > 100 µM (inactive) | > 100 µM (inactive)
11 | COc1ccc2c(c1)CCc1cc(OC)ccc1/[N+]([O-])=[N+]\2[O-] | 6.27 µM (inactive) | 20.8 µM (inactive) | 15.6 | 25.1 µM (inactive) | 12.1 µM (inactive) | 8.91 µM (inactive) | 15 µM (inactive) | 23 µM (inactive) | 16.3 µM (inactive) | 14.3 µM (inactive) | – | 5.93 µM (inactive) | 24.9 µM (inactive) | 2.86 µM (inactive) | 16.7 µM (inactive) | 19.9 µM (inactive) | 3.28 µM (inactive) | 7.1 µM (inactive) | 22.4 µM (inactive) | 18.3 µM (inactive)
